“Also recorded” adds a separate entry of the source. Bounds are passed on as bounds.

The source of these data is publication PMC12196358, “Indole Alkaloids and Phenolic Amides from the Rhizomes of Cimicifuga heracleifolia and Their In Vitro Soluble Epoxide Hydrolase (sEH) Inhibitory Activity” (Plants, 2025).

Assay [1] concerns the target T1, soluble epoxide hydrolase (sEH) (Homo sapiens, UniProt P34913).
T1 construct: purchased Cayman Chemical Company 100116
T1 sequence (P34913 1-555): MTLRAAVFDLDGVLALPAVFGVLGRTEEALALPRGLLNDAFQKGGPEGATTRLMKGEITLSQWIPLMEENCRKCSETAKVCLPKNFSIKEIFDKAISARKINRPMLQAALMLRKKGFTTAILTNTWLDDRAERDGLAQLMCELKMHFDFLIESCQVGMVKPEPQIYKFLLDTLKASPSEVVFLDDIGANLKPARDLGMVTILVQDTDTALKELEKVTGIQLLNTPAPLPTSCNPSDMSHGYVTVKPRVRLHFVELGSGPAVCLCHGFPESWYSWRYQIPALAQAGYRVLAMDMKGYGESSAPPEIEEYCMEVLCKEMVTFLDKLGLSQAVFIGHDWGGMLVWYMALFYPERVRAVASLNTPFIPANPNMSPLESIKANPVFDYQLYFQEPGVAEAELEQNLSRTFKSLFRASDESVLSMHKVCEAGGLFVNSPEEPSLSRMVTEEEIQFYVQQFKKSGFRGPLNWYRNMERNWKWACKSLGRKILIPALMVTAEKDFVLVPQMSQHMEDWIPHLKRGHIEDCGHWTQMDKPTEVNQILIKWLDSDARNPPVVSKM
The assay is described as follows: sEH inhibitory activity, fluorescence-based assay with PHOME as substrate. The class given is biochemical. To be noted: recombinant sEH; for IC50: 37 °C, mean ± SD (n = 3); for sEH inhibitory activity (in words): compounds tested 0.1–100.0 μM. The protocol:
The sEH inhibitory activities of compounds 1−10 were evaluated using a fluorescence-based assay with 3-phenyl-cyano(6-methoxy-2-naphthalenyl)methyl ester-2-oxiraneacetic acid (PHOME) as the substrate.
The epoxide hydrolase (sEH) enzyme is a recombinant enzyme with a concentration of 0.8 mg/mL, purchased from the Cayman Chemical Company in the United States (catalogue number: 100116, batch number: 069065) and stored at −80 °C to ensure its activity.
The enzymatic reactions were performed in a 96-well plate at 37 °C, where sEH hydrolyzed the fluorogenic substrate PHOME (MedChemExpress LLC., Princeton, NJ, USA) in the presence of each compound. The fluorescence signals were measured at an excitation wavelength of 330 nm and an emission wavelength of 465 nm. Wells containing the substrate alone (without the test compounds) served as negative controls. […] The inhibitory activity of each compound was evaluated based on the reduction in the formation of 6-methoxy-2-naphthaldehyde, a fluorescent product generated by PHOME hydrolysis.

Assay [2] addresses T1, soluble epoxide hydrolase (sEH). In words: sEH kinetic study (Lineweaver–Burk plots, varying inhibitor and PHOME concentrations). Type of assay: biochemical. The conditions noted are these: compound 1 to 5 μM, PHOME 1 to 20 μM. The protocol:
Furthermore, the inhibition mechanisms of phenolic amides 6–8 and 10 were elucidated by kinetic analysis using various concentrations of compounds and the substrate, PHOME.
The inhibitory behaviour of compounds 6–8 and 10 against sEH was examined by analyzing kinetic changes at varying inhibitor concentrations. Each compound was tested at concentrations ranging from 1 to 5 μM, whereas the substrate PHOME was applied at concentrations ranging from 1 to 20 μM. The experimental data were fitted to the Michaelis–Menten equation to evaluate the kinetic parameters. The mode of inhibition was further determined using Lineweaver–Burk plots. Data were analyzed and plotted using GraphPad Prism 7 (GraphPad Software Inc., San Diego, CA, USA).

For `COc1cc(CCNC(=O)/C=C/c2ccc(O[C@@H]3O[C@H](CO)[C@H](O)[C@H](O)[C@H]3O)c(OC)c2)ccc1O` [Compound 7, cimicifugamide], in assay [1], the IC50 amounted to 15.63 ± 0.1 µM and the “sEH inhibitory activity (in words)” value is reported as “moderate inhibitory activity”. Also, the “mechanism (mode) of sEH inhibition” value in assay [2] is “mixed-type competitive”.

`COc1cc(/C=C/C(=O)NCCc2ccc(O)cc2)ccc1O[C@@H]1O[C@H](CO)[C@H](O)[C@H](O)[C@H]1O` [Compound 8, demethoxycimicifugamide]: in assay [1], the IC50 came out at 20.6 ± 0.89 µM and the “sEH inhibitory activity (in words)” value was “moderate inhibitory activity”. In addition, in assay [2], the “mechanism (mode) of sEH inhibition” value is given as “mixed-type competitive”.

For the compound `COc1cc(/C=C/C(=O)NCCc2ccc(O)c(O)c2)ccc1O[C@@H]1O[C@H](CO)[C@H](O)[C@H](O)[C@H]1O` [Compound 6, cimicifugamide A], in assay [1], the IC50 is 8.74 ± 0.42 µM and the “sEH inhibitory activity (in words)” value is “most potent sEH inhibitory activity”. In addition, in assay [2], the “mechanism (mode) of sEH inhibition” value is recorded as “non-competitive”.

`CC(C)CC[C@]1(O)C(=O)N([C@@H]2O[C@H](CO)[C@@H](O)[C@H](O)[C@H]2O)c2ccccc21` [Compound 3, (3R)-1-(β-D-glucopyranosyl)-3-hydroxy-3-(3-methylbutyl)-2-oxindole]: the IC50 in assay [1] was more than 100 µM.

With `COc1ccc2c(C(=O)C=C(C)C)c[nH]c2c1` [Compound 1, 6-methoxy-3-(3-methyl-1-oxo-2-butenyl) 1H indole], in assay [1], the IC50 is more than 100 µM and the “sEH inhibitory activity (in words)” value was “lack of inhibitory activity”.

With `COc1cc(/C=C/C(=O)NCCc2ccc(O)cc2)ccc1O` [Compound 10, N-trans-feruloyl tyramine], in assay [1], the IC50 was 17.2 ± 0.31 µM and the “sEH inhibitory activity (in words)” value was “moderate inhibitory activity”. Besides, in assay [2], the “mechanism (mode) of sEH inhibition” value is listed as “uncompetitive”.

Turning to `CC(C)=CC(=O)c1c[nH]c2ccccc12` [Compound 2, 3-(3-methyl-1-oxo-2-butenyl) 1H indole], in assay [1], the IC50 was more than 100 µM and the “sEH inhibitory activity (in words)” value is “lack of inhibitory activity”.

`CC(=O)NCCc1ccc(O)c(OC2OC(CO)C(O)C(O)C2O)c1` [Compound 4, N-acetyldopamine-3-O-β-D-allopyranoside]: in assay [1], the IC50 was more than 100 µM and the “sEH inhibitory activity (in words)” value is listed as “did not show significant inhibitory activity”.

Regarding `COc1cc(C=CC(=O)NCCc2ccc(OC3OC(CO)C(O)C(O)C3O)c(OC)c2)ccc1O` (centres unmarked) [Compound 9, cimicifugamide C], in assay [1], the IC50 was more than 100 µM and the “sEH inhibitory activity (in words)” value is on record as “did not show significant inhibitory activity; also recorded: no sEH inhibitory activity”.

For the compound `CC(=O)NCCc1ccc(O)c(O[C@@H]2O[C@H](CO)[C@@H](O)[C@H](O)[C@H]2O)c1` [Compound 5, N-acetyldopamine-3-O-β-D-glucopyranoside], in assay [1], the 50% inhibitory concentration (IC50) is more than 100 µM and the “sEH inhibitory activity (in words)” value is on record as “did not show significant inhibitory activity”.

In general, IC50 refers to the concentration needed to halve the response being measured.
